This passage reports MIC results from DBAASP.

Test systems include Escherichia coli; Listeria innocua; Micrococcus luteus A270; Micrococcus luteus; Staphylococcus aureus.
What all share (assay): ≥ marks a high value that may be exact or a test limit, other limits are often not marked, values filed in µg/mL are converted to µM
In assay [1] the test system is Bacillus subtilis ATCC 62037.
Assay [2] deals with Candida albicans ATCC 10231.
For assay [3], the system named is Cryptococcus neoformans ATCC 34881.
The subject of assay [4] is Escherichia coli ATCC 27325.
Assay [5] concerns Pseudomonas putida ATCC 17426.
Assay [6] has as its system Saccharomyces cerevisiae ATCC 44774.
In assay [7] the test system is Salmonella enterica subsp. enterica serovar Enteritidis ATCC 13076.
In assay [8] the test system is Staphylococcus aureus ATCC 15752.
Assay [9] deals with Streptococcus mutans ATCC 25175.
Assay [10] has as its system Bacillus subtilis ATCC 6633.
The test system of assay [11] is Escherichia coli ATCC 25922.
The test system of assay [12] is Klebsiella pneumoniae ATCC 10031.
Assay [13] has as its system Micrococcus luteus ATCC 10240.
Assay [14] has as its system Pseudomonas aeruginosa ATCC 27853.
The subject of assay [15] is Salmonella enterica subsp. enterica serovar Typhimurium ATCC 14028.
Assay [16] relates to Shigella dysenteriae ATCC 9752.
The test system of assay [17] is Staphylococcus aureus ATCC 6538P.
For assay [18], the system named is Staphylococcus aureus TK784.
For assay [19], the system named is Staphylococcus epidermidis ATCC 12228.
The subject of assay [20] is Salmonella enterica subsp. enterica serovar Enteritidis.

Values after ≈ are worked out from the molar mass of the structure shown. Values joined by “and” are separate entries in the source; they are usually repeats but may differ in a detail not shown here. Equal entries are not always repeated. Where only a bound is given, the exact number is not on record here.

Take `CC[C@H](C)[C@H](NC(=O)CNC(=O)[C@H](CCCCN)NC(=O)[C@H](CCCCN)NC(=O)[C@H](CCC(N)=O)NC(=O)[C@H](CC(C)C)NC(=O)[C@H](CCCN=C(N)N)NC(=O)[C@H](CC(C)C)NC(=O)[C@H](CC(C)C)NC(=O)[C@H](CCCN=C(N)N)NC(=O)[C@H](CCCN=C(N)N)NC(=O)[C@H](CC(C)C)NC(=O)[C@H](CC(C)C)NC(=O)[C@H](CCCN=C(N)N)NC(=O)[C@H](CCSC)NC(=O)[C@H](C)NC(=O)[C@H](CCCCN)NC(=O)[C@@H]1CCCN1C(=O)[C@H](C)N)C(=O)O` [APKAMRLLRRLLRLQKKGI]: the MIC (commonly the smallest concentration in the dilution series that meets the test's criterion for growth inhibition) in [1] is 0.442 µM (≈ 1 µg/mL); in [2], 0.221 µM (≈ 0.5 µg/mL); in assay [3], 0.221 µM (≈ 0.5 µg/mL); in [4] it was 0.442 µM (≈ 1 µg/mL); in assay [5], 0.442 µM (≈ 1 µg/mL); in assay [6] it was 0.221 µM (≈ 0.5 µg/mL). The minimum inhibitory concentration (MIC) in assay [7] was found to be 0.442 µM (≈ 1 µg/mL); in assay [8], 0.884 µM (≈ 2 µg/mL); in assay [9], 0.442 µM (≈ 1 µg/mL).

Consider `CC(C)C[C@H](NC(=O)[C@H](Cc1c[nH]c2ccccc12)NC(=O)[C@H](CCCCN)NC(=O)[C@H](CCCCN)NC(=O)[C@H](CC(C)C)NC(=O)[C@H](Cc1c[nH]c2ccccc12)NC(=O)[C@H](CCCCN)NC(=O)[C@H](CC(C)C)NC(=O)[C@@H](N)CC(C)C)C(=O)N[C@@H](CCCCN)C(=O)N[C@@H](CCCCN)C(N)=O` [LLKWLKKWLKK], for which the minimum inhibitory concentration (MIC) was found to be 1.68 µM (≈ 2.5 µg/mL) in assay [10]; 27 µM (≈ 40 µg/mL) in [11]; 27 µM (≈ 40 µg/mL) in assay [12]; 3.37 µM (≈ 5 µg/mL) in [13]; 13.5 µM (≈ 20 µg/mL) in assay [14]; 53.9 µM (≈ 79.9 µg/mL) in assay [15]. For the same compound, the minimum inhibitory concentration (MIC) is no less than 53.9 µM in assay [16], 1.68 µM (≈ 2.5 µg/mL) in assay [17], 27 µM (≈ 40 µg/mL) in assay [18] and 1.68 µM (≈ 2.5 µg/mL) in assay [19].

In the case of `CC(C)C[C@H](NC(=O)[C@H](Cc1c[nH]c2ccccc12)NC(=O)[C@H](CCCCN)NC(=O)[C@H](CC(C)C)NC(=O)[C@H](CC(C)C)NC(=O)[C@H](CCCCN)NC(=O)[C@H](CCCCN)NC(=O)[C@H](CC(C)C)NC(=O)[C@H](CC(C)C)NC(=O)[C@H](CCCCN)NC(=O)[C@@H](N)CCCCN)C(N)=O` [KKLLKKLLKWL], the minimal inhibitory concentration (MIC) in [10] is 0.709 µM (≈ 0.999 µg/mL); in [11] it was 1.42 µM (≈ 2 µg/mL); in assay [12], 1.42 µM (≈ 2 µg/mL); in assay [13] it was 1.42 µM (≈ 2 µg/mL); in assay [14], 2.84 µM (≈ 4 µg/mL); in [15] it was 0.709 µM (≈ 0.999 µg/mL). The minimum inhibitory concentration (MIC) in assay [16] worked out at 0.709 µM (≈ 0.999 µg/mL); in assay [17], 0.709 µM (≈ 0.999 µg/mL); in assay [18], 2.84 µM (≈ 4 µg/mL); in assay [19] it was 0.709 µM (≈ 0.999 µg/mL).

Turning to `CC(C)C[C@H](NC(=O)[C@H](CC(C)C)NC(=O)[C@H](Cc1c[nH]c2ccccc12)NC(=O)[C@H](CCCCN)NC(=O)[C@H](CC(C)C)NC(=O)[C@H](CC(C)C)NC(=O)[C@H](Cc1c[nH]c2ccccc12)NC(=O)[C@H](CCCCN)NC(=O)[C@H](CC(C)C)NC(=O)[C@@H](N)CC(C)C)C(=O)N[C@@H](CCCCN)C(N)=O` [LLKWLLKWLLK], the minimum inhibitory concentration (MIC) is 0.894 µM (≈ 1.3 µg/mL) in assay [10]; greater than 55 µM in assay [11]; no less than 55 µM in assay [12]; 1.72 µM (≈ 2.5 µg/mL) in [13]; greater than 55 µM in assay [14]; greater than 55 µM in assay [15]. In addition, the MIC is no less than 55 µM in assay [16], 1.72 µM (≈ 2.5 µg/mL) in assay [17], 3.44 µM (≈ 5 µg/mL) in [18] and 0.894 µM (≈ 1.3 µg/mL) in assay [19].

With `CC(C)C[C@H](NC(=O)[C@@H](NC(=O)[C@@H](NC(=O)[C@@H](N)CO)[C@@H](C)O)C(C)C)C(=O)N[C@H](C(=O)N[C@@H](CO)C(=O)N[C@@H](CCCCN)C(=O)N[C@@H](Cc1ccc(O)cc1)C(=O)N[C@@H](CCCN=C(N)N)C(=O)O)[C@@H](C)O` [STVLTSKYR], the MIC was 8 µM (≈ 8.43 µg/mL) in the assay with Escherichia coli; 2 µM (≈ 2.11 µg/mL) in the assay with Listeria innocua; 15 µM (≈ 15.8 µg/mL) in the assay on Micrococcus luteus A270; 15 µM (≈ 15.8 µg/mL) with Micrococcus luteus; 8 µM and 7.5 µM in [20]; 2 µM (≈ 2.11 µg/mL) in the assay on Staphylococcus aureus.
